Experimental data published in ChEMBL document CHEMBL6115007, “Synthesis and in vitro and in vivo evaluation of novel bivalent quinolines as antitumor agents via targeting autophagy in cervical cancer” (Eur J Med Chem, 2025).
Active and inactive are the calls of the source. No cut-off for these calls is given here.

How the values were obtained:
HeLa [1] = experiment: Inhibition of colony formation in ATG5 deficient human HeLa cells at 0.15 to 0.6 uM incubated for 24 hrs by crystal violet staining based analysis; format: functional, cell-based; conditions: dose 0.15-0.6 µM
HeLa [2] = experiment: Inhibition of colony formation in ATG7 deficient human HeLa cells at 0.15 to 0.6 uM incubated for 24 hrs by crystal violet staining based analysis; format: functional, cell-based; conditions: dose 0.15-0.6 µM
HeLa [3] = experiment: Induction of apoptosis in human HeLa cells assessed as necrotic cells at 0.6 uM incubated for 24 hrs by Annexin V-FITC/PI staining based flow cytometric analysis (reference value: 1.88 %); format: functional
Ca-Ski [4] = experiment: Effect on ACSL4 protein expression level in human Ca Ski cells at 0.5 uM incubated for 24 hrs by Western blot analysis; format: functional, cell-based
Ca-Ski [5] = experiment: Antiproliferative activity against Bax deficient human Ca Ski cells assessed as inhibition of cell viability incubated for 24 hrs by CCK8 assay; format: functional, cell-based
Ca-Ski [6] = experiment: Induction of apoptosis in human Ca Ski cells assessed as necrotic cells at 0.5 uM incubated for 24 hrs by Annexin V-FITC/PI staining based flow cytometric analysis (reference value: 3.15 %); format: functional
C-33-A [7] = experiment: Induction of morphological changes in human C-33-A cells assessed as increase in inflated cell appearance at 0.3 to 1.2 uM by microphotographic analysis; format: functional, cell-based; conditions: dose 0.3-1.2 µM
Ca-Ski [8] = experiment: Effect on SLC7A11 protein expression level in human Ca Ski cells at 0.5 uM incubated for 24 hrs by Western blot analysis; format: functional, cell-based
HeLa [9] = experiment: Induction of apoptosis in human HeLa cells assessed as late apoptotic cells at 1.2 uM incubated for 24 hrs by Annexin V-FITC/PI staining based flow cytometric analysis (reference value: 0.94 %); format: functional
Ca-Ski [10] = experiment: Effect on cleaved caspase 3 expression level in human Ca Ski cells at 0.25 to 1 uM incubated for 24 hrs by Western blot analysis; format: functional, cell-based; conditions: dose 0.25-1 µM
Ca-Ski [11] = experiment: Induction of apoptosis in human Ca Ski cells assessed as late apoptotic cells at 0.5 uM incubated for 24 hrs by Annexin V-FITC/PI staining based flow cytometric analysis (reference value: 5.33 %); format: functional
HeLa [12] = experiment: Effect on cleaved PARP expression level in p53 deficient human HeLa cells at 0.6 to 1.2 uM incubated for 24 hrs by Western blot analysis; format: functional, cell-based; conditions: dose 0.6-1.2 µM
Ca-Ski [13] = experiment: Induction of apoptosis in human Ca Ski cells assessed as necrotic cells at 0.5 uM preincubated with Z-VAD-FMK for 1 hrs followed by compound addition and measured after 24 hrs by Annexin V-FITC/PI staining based flow cytometric analysis (reference value: 1.54 %); format: functional
HeLa [14] = experiment: Induction of apoptosis in human HeLa cells assessed as viable cells at 0.6 uM incubated for 24 hrs by Annexin V-FITC/PI staining based flow cytometric analysis (reference value: 96.2 %); format: functional; conditions: read-out: Activity
HeLa [15] = experiment: Effect on ACSL4 protein expression level in human HeLa cells at 0.6 uM incubated for 24 hrs by Western blot analysis; format: functional, cell-based
[16] = Toxicity in female BALB/c mouse xenografted with human HeLa cells assessed as effect on RBC level at 4 to 8 mg/kg administered every four days and measured after 26 days; format: organism-based; conditions: in vivo, 624 h, dose 4-8 mg/kg, time 26 day
Ca-Ski [17] = experiment: Induction of autophagy in human Ca Ski cells assessed as increase in LC3-I conversion to LC3-II at 0.25 to 1 microM incubated for 24 hrs by Western blot analysis; format: functional, cell-based; conditions: dose 0.25-1 µM
Ca-Ski [18] = experiment: Induction of apoptosis in human Ca Ski cells assessed as late apoptotic cells at 1 uM preincubated with Z-VAD-FMK for 1 hrs followed by compound addition and measured after 24 hrs by Annexin V-FITC/PI staining based flow cytometric analysis (reference value: 5.30 %); format: functional
HeLa [19] = experiment: Effect on cleaved caspase 3 expression level in human HeLa cells at 0.3 to 1.2 uM incubated for 24 hrs by Western blot analysis; format: functional, cell-based; conditions: dose 0.3-1.2 µM
HeLa [20] = experiment: Induction of autophagolysosome formation in human HeLa cells transfected with mRFP-GFP-LC3 plasmid assessed as increase in ratio of mRFP to GFP puncta at 0.4 to 0.8 uM incubated for 24 hrs; format: functional, cell-based; conditions: dose 0.4-0.8 µM
C-33-A [21] = experiment: Antiproliferative activity against human C-33-A cells assessed as inhibition of cell growth at 0.3 to 1.2 uM by CCK8 assay; format: functional, cell-based; conditions: dose 0.3-1.2 µM, time 6.0 day
Ca-Ski [22] = experiment: Antiproliferative activity against human Ca Ski cells assessed as inhibition of cell viability incubated for 24 hrs by CCK8 assay; format: functional, cell-based
HeLa [23] = experiment: Induction of apoptosis in human HeLa cells assessed as early apoptotic cells at 0.6 uM preincubated with Z-VAD-FMK for 1 hrs followed by compound addition and measured after 24 hrs by Annexin V-FITC/PI staining based flow cytometric analysis (reference value: 0.96 %); format: functional
HeLa [24] = experiment: Antitumor activity against human HeLa cells xenografted in female BALB/c mouse assessed as reduction in tumor growth at 4 to 8 mg/kg administered every four days and measured after 26 days; format: functional, organism-based; conditions: dose 4-8 mg/kg, time 26.0 day
HeLa [25] = experiment: Effect on TRFC protein expression level in human HeLa cells at 0.6 uM incubated for 24 hrs by Western blot analysis; format: functional, cell-based
HeLa [26] = experiment: Induction of autophagy in human HeLa cells assessed as increase in ATG5 protein level at 0.6 to 1.2 uM incubated for 24 hrs by Western blot analysis; format: functional, cell-based; conditions: dose 0.6-1.2 µM
C-33-A [27] = experiment: Induction of morphological changes in human C-33-A cells assessed as decrease in cell adherence to culture dish at 0.3 to 1.2 uM by microphotographic analysis; format: functional, cell-based; conditions: dose 0.3-1.2 µM
C-33-A [28] = experiment: Induction of morphological changes in human C-33-A cells assessed as increase in appearance of round cells at 0.3 to 1.2 uM by microphotographic analysis; format: functional, cell-based; conditions: dose 0.3-1.2 µM
[29] = Toxicity in female BALB/c mouse xenografted with human HeLa cells assessed as effect on WBC level at 4 to 8 mg/kg administered every four days and measured after 26 days; format: organism-based; conditions: in vivo, 624 h, dose 4-8 mg/kg, time 26 day
HeLa [30] = experiment: Effect on cleaved caspase 3 expression level in p53 deficient human HeLa cells at 0.6 to 1.2 uM incubated for 24 hrs by Western blot analysis; format: functional, cell-based; conditions: dose 0.6-1.2 µM
HeLa [31] = experiment: Induction of autophagy in human HeLa cells assessed as increase in p62 level at 0.3 to 1.2 microM incubated for 24 hrs by Western blot analysis; format: functional, cell-based; conditions: dose 0.3-1.2 µM
HeLa [32] = experiment: Induction of apoptosis in human HeLa cells assessed as viable cells at 1.2 uM incubated for 24 hrs by Annexin V-FITC/PI staining based flow cytometric analysis (reference value: 96.2 %); format: functional; conditions: read-out: Activity
SiHa = experiment: Antiproliferative activity against human SiHa cells assessed as inhibition of cell viability incubated for 24 hrs by CCK8 assay; format: functional, cell-based
HeLa [33] = experiment: Effect on Beclin1 protein level in human HeLa cells at 0.6 to 1.2 uM incubated for 24 hrs by Western blot analysis; format: functional, cell-based; conditions: dose 0.6-1.2 µM
HeLa [34] = experiment: Induction of autophagy in human HeLa cells assessed as increase in LC3-II accumulation at 0.6 uM incubated for 3 to 48 hrs by Western blot analysis; format: functional, cell-based; conditions: time 3-48 hrs

**Q.** For `COc1cccc(Nc2ccnc3cc(OCCCCCOc4ccc5c(Nc6cccc(OC)c6)ccnc5c4)ccc23)c1`, which inhibition (HeLa [1]) is on record?
**A.** Minimal_effect

**Q.** What about the inhibition (HeLa [2]) of the same compound?
**A.** Minimal_effect

**Q.** What about the Activity (HeLa [3]) of the same compound?
**A.** 2.66%

**Q.** What about the Activity (Ca-Ski [4]) of the same compound?
**A.** Moderate_effect

**Q.** What about the IC50 (Ca-Ski [5]) of the same compound?
**A.** 993 nM

**Q.** And the Activity (Ca-Ski [6])?
**A.** 0.64%

**Q.** What about the Activity (C-33-A [7]) of the same compound?
**A.** Active

**Q.** What about the Activity (Ca-Ski [8]) of the same compound?
**A.** Moderate_effect

**Q.** And the Activity (HeLa [9])?
**A.** 4.11%

**Q.** And the Activity (Ca-Ski [10])?
**A.** inactive

**Q.** What about the Activity (Ca-Ski [11]) of the same compound?
**A.** 5.88%

**Q.** What about the Activity (HeLa [12]) of the same compound?
**A.** inactive

**Q.** And the Activity (Ca-Ski [13])?
**A.** 1.4%

**Q.** What about the viability at 0.6 µM (HeLa [14]) of the same compound?
**A.** 94.3%

**Q.** What about the Activity (HeLa [15]) of the same compound?
**A.** Moderate_effect

**Q.** And the Activity [16]?
**A.** Non-toxic

**Q.** What about the Activity (Ca-Ski [17]) of the same compound?
**A.** Active

**Q.** And the Activity (Ca-Ski [18])?
**A.** 6.59%

**Q.** What about the Activity (HeLa [19]) of the same compound?
**A.** inactive

**Q.** What about the Activity (HeLa [20]) of the same compound?
**A.** Active

**Q.** What about the Activity (C-33-A [21]) of the same compound?
**A.** Time-dependent-effect

**Q.** And the Activity (Ca-Ski [22])?
**A.** Dose-dependent-effect

**Q.** What about the IC50 (Ca-Ski [22]) of the same compound?
**A.** 775 nM

**Q.** And the Activity (HeLa [23])?
**A.** 1.31%

**Q.** And the Activity (HeLa [24])?
**A.** Active

**Q.** And the Activity (HeLa [25])?
**A.** inactive

**Q.** What about the Activity (HeLa [26]) of the same compound?
**A.** Active

**Q.** What about the Activity (C-33-A [27]) of the same compound?
**A.** Active

**Q.** What about the Activity (C-33-A [28]) of the same compound?
**A.** Active

**Q.** And the Activity [29]?
**A.** Non-toxic

**Q.** And the Activity (HeLa [30])?
**A.** inactive

**Q.** And the Activity (HeLa [31])?
**A.** Active

**Q.** And the viability at 1.2 µM (HeLa [32])?
**A.** 93.2%

**Q.** And the Activity (SiHa)?
**A.** Dose-dependent-effect

**Q.** What about the IC50 (SiHa) of the same compound?
**A.** 1450 nM

**Q.** What about the Activity (HeLa [33]) of the same compound?
**A.** inactive

**Q.** And the Activity (HeLa [34])?
**A.** Active
